# Entries after “also recorded” stand apart in the source; their conditions may differ.
# Assays:
# Assay type in all cases: in vivo, C57BL/6 mice
# [1] = test system: Helicobacter pylori-producing toxin VacA; test: Serum anti-s1 m1 VacA IgG (ELISA) in Helicobacter pylori-infected mice; conditions: SAC1 and SAC2 groups (200 and 400 mg/kg SAC)
# Method: S-allyl-L-Cysteine (SAC) was purchased from TCI Chemical Co. (Tokyo, Japan). Helicobacter pylori was American Type Culture Collection (ATCC) 43504 (cagA+, vacA s1-ml type) and cultured in a Mueller Hinton-Agar broth at 37° C. for 48 hours, under 5% CO2 microaerophilic conditions with a concentration of 1×10^9 CFU/ml.
# (§1) 8-week old male C57BL/6 mice were classified into 4 groups, i.e., a positive control group (to which Helicobacter pylori was administered; PC), a negative control group (to which saline was administered; NC), experimental group 1 (to which Helicobacter pylori and 200 mg/kg of SAC were administered; SAC1), and experimental group 2 (to which Helicobacter pylori and 400 mg/kg of SAC were administered; SAC2). Each group had 10 mice. White powdered SAC was diluted in tap water to concentrations of 20 mg/mL and 40 mg/mL and 10 μl/g (body weight) of the diluted SAC was orally administered to the mice of the SAC1 and SAC2 groups three times a week for 10 weeks. The mice were given free access to tap water for the entire test period. […]
# Enzyme-linked immunosorbent assay (ELISA) was used in order to identify the effect of SAC on serum anti-Helicobacter pylori antibody-formation capability. […] 100 μl of 0.2 M sulfuric acid was added thereto to terminate the reaction and absorbance was measured at 450 nm.
# [2] = test system: TNF-α; test: Serum TNF-α in Helicobacter pylori-infected mice; conditions: SAC1 and SAC2 groups (200 and 400 mg/kg SAC), p<0.09
# Method: as §1, with “period. The Helicobacter pylori was collected with saline to a concentration of 1×10^9 CFU/mL, and 0.2 mL of the diluted Helicobacter pylori was orally administered to each mouse for 8 weeks from 2 weeks after SAC administration.” for “period.”
# In order to observe the effect of SAC on an inflammation factor of TNF-α in serum, a commercially available mouse TNF-α antibody analysis kit Microplate (R&D systems Inc., USA) was used and concentrations of TNF-α in serum of mice were measured according to the manuals of the kit.
# [3] = test system: Cu/Zn-SOD; test: Serum Cu/Zn-SOD level in Helicobacter pylori infection model; conditions: for Cu/Zn-SOD level greater than that of the PC group by: serum
# Method: 8-week old male C57BL/6 mice were classified into 4 groups, i.e., a positive control group (to which Helicobacter pylori was administered; PC), a negative control group (to which saline was administered; NC), experimental group 1 (to which Helicobacter pylori and 200 mg/kg of SAC were administered; SAC1), and experimental group 2 (to which Helicobacter pylori and 400 mg/kg of SAC were administered; SAC2). Each group had 10 mice. White powdered SAC was diluted in tap water to concentrations of 20 mg/mL and 40 mg/mL and 10 μl/g (body weight) of the diluted SAC was orally administered to the mice of the SAC1 and SAC2 groups three times a week for 10 weeks. The mice were given free access to tap water for the entire test period. The Helicobacter pylori was collected with saline to a concentration of 1×10^9 CFU/mL, and 0.2 mL of the diluted Helicobacter pylori was orally administered to each mouse for 8 weeks from 2 weeks after SAC administration. The mice were fasted for 8 hours before the infection, and 0.15 mL of 0.2 M sodium bicarbonate (NaHCO3) was administered to each mouse 10 minutes before the administration of Helicobacter pylori in order to neutralize acidified stomach due to the fasting. The same amount of saline instead of the infectious substances was administered into the NC group. The mice of all groups were fed with a normal diet. After a 10-week test period, autopsies were performed on all mice, and samples of blood and internal organs were collected for tissue pathological analyses. The test was performed according to the process of FIG. 19.
# In this regard, a superoxide dismutase activity assay kit (BioVision, Mountain View, Calif., USA) was used. 20 μl of serum and 200 μl of a WST working solution as a substrate were mixed. 20 μl of an enzyme working solution was added thereto, and the mixture was maintained at 37° C. for 20 minutes. Absorbance was measured at 450 nm. A control reaction was conducted in the same manner as described above, except that 20 μl of distilled water was added thereto instead of serum. SOD activity (inhibition rate %) was calculated.
smiles,measurement,setting,value
"C=CCSC[C@H](N)C(=O)O [SAC, S-allyl-L-cysteine]",production of antibody against VacA (anti-s1 m1 VacA IgG),[1],inhibited in the same manner as in the anti-H. pylori IgG
same,serum TNF-α versus PC group,[2],reduced; also recorded: less than that of the PC group
same,Cu/Zn-SOD level greater than that of the PC group by,[3]; SAC1 group (200 mg/kg SAC),about 4%
same,Cu/Zn-SOD level greater than that of the PC group by,[3]; SAC2 group (400 mg/kg SAC),about 3%
same,serum Cu/Zn-SOD level versus positive control group,"[3]; SAC-administered experimental group, dose not stated",higher than that of the positive control group
